From US7002012B2, “Substituted (1,3-bis(cyclohexylmethyl)-1,2,3,6-tetrahydro-2,6-dioxo-9h-purin-8-YI)phenyl derivatives, their preparation and their use in the treatment of inflammatory conditions and immune disorders” (SmithKline Beecham Corporation, priority 1997, dated 2006)

What was measured:
male Lewis rats [1] = assay: Carrageenan Pleurisy Assay; assay type: in vivo, rat; settings: for CARRAGEENAN PLEURISY (4 hr) LOCAL ED50 (MG/RAT) CELLS: inhibition of inflammatory cells (neutrophils) in pleural exudate four hours after carrageenan 0.075 mg/rat; for CARRAGEENAN PLEURISY (4 hr) LOCAL ED50 (MG/RAT) CELLS / CARRAGEENAN PLEURISY (4 hr) LOCAL ED50 (MG/RAT) EDEMA: local administration; for CARRAGEENAN PLEURISY (4 hr) LOCAL ED50 (MG/RAT) EDEMA: inhibition of pleural edema four hours after carrageenan 0.075 mg/rat
Protocol: The antiinflammatory activity of compounds of the invention was determined by the procedure of Vinegar, R, et al., Proc. Soc. Exp. Biol. Med., 1981, 168, 24–32, using male Lewis rats of 150±±}20 grams. The carrageenan dose was 0.075 mg/rat. Pleural exudate was harvested four hours after injection of carrageenan. Acute antiinflammatory activity was determined by inhibition of pleural edema and inflammatory cells (neutrophils) from a negative (vehicle) control group.

male Lewis rats [2] = assay: Acetic Acid Colitis Assay; assay type: in vivo, rat; settings: for ACETIC ACID COLITIS (24 hr) ACTIVE DOSE [MG/KG] (ROUTE) TISSUE WEIGHT: colon weight (edema); for ACETIC ACID COLITIS (24 hr) ACTIVE DOSE [MG/KG] (ROUTE) MPO: mucosal MPO levels
Protocol: Compounds were administered either orally or rectally 24, 16 and 4 hours prior to the 40 second instillation of 3% acetic acid solution in the proximal 6 cm of the colon under light anesthesia. The colon was immediately washed with 5 cc of saline. 24 hours later the rats were sacrificed and 6 cm of the proximal colon was excised weighed for edema. Neutrophil inflammation was determined by measuring MPO levels in the scraped colonic mucosa from these rats.

Male CD-1 mice = assay: In Vivo Septic Shock Model: C Parvum/LPS Shock; settings: oral dose 75 mg/kg, 2 hours before the LPS and at the same time as the LPS
Protocol: Male CD-1 mice, 25–30 g (Charles River: Raleigh, N.C.), are injected intravenously (i.v.) with 100 μμ}g killed C. Parvum (Coparvax; Burroughs Wellcome, RTP, NC).Ten days later the mice are injected i.v. with 20 μμ}g E. Coli 026:B6 lipopolysaccharide (LPS; Difco Labs, Detroit, Mich.) in the presence of the analgesic butorphenol (150 μμ}g per mouse).
The test compounds are dissolved in dimethyl sulphoxide and diluted into 0.5% methyl cellulose and then dosed orally 2 hours before the LPS and at the same time as the LPS.

[3] = ic = intracolonic administration

In the case of `C[C@@H]1C[C@H]2[C@@H]3CCC4=CC(=O)C=C[C@]4(C)[C@@]3(F)[C@@H](O)C[C@]2(C)[C@@]1(O)C(=O)CO` [Dexamethasone, reference compound], the “CARRAGEENAN PLEURISY (4 hr) LOCAL ED50 (MG/RAT) CELLS” value (from here on “CARRAGEENAN PLEURISY … (MG/RAT) CELLS”) (male Lewis rats [1]) was 0.02 MG/RAT, the “CARRAGEENAN PLEURISY (4 hr) LOCAL ED50 (MG/RAT) EDEMA” value (“CARRAGEENAN PLEURISY … (MG/RAT) EDEMA” for short) (male Lewis rats [1]) was 0.015 MG/RAT and the “ACETIC ACID COLITIS (24 hr) ACTIVE DOSE [MG/KG] (ROUTE) TISSUE WEIGHT” value (“ACETIC ACID COLITIS … (ROUTE) TISSUE WEIGHT” for short) (male Lewis rats [2]; [3]) was 0.17 mg/kg. For the same compound, the “ACETIC ACID COLITIS (24 hr) ACTIVE DOSE [MG/KG] (ROUTE) MPO” value (“ACETIC ACID COLITIS … (ROUTE) MPO” for short) (male Lewis rats [2]; [3]) was 0.03 mg/kg.

With `COCCOCCOCCOCCOCCOCCOCCOCCOCCOCCOC(=O)/C=C/c1ccc(-c2nc3c(=O)n(CC4CCCCC4)c(=O)n(CC4CCCCC4)c3[nH]2)cc1` [Example 9, (E)-4-(1,3-Bis(cyclohexylmethyl)-1,2,3,6-tetrahydro-2,6-dioxo-9H-purin-8-yl)cinnamic Acid Decaethylene Glycol Methyl Ether Ester] the “CARRAGEENAN PLEURISY … (MG/RAT) CELLS” value (male Lewis rats [1]) was 0.02 MG/RAT, the “CARRAGEENAN PLEURISY … (MG/RAT) EDEMA” value (male Lewis rats [1]) was 0.2 MG/RAT and the “ACETIC ACID COLITIS … (ROUTE) TISSUE WEIGHT” value (male Lewis rats [2]; [3]) was 5.0 mg/kg. For the same compound, the “ACETIC ACID COLITIS … (ROUTE) MPO” value (male Lewis rats [2]; [3]) was 5.0 mg/kg, the “% Survivors” value (Male CD-1 mice) was 50% and the Alive/Total (Male CD-1 mice) was 4/8.

For `COCCOCCOCCOCCOCCOCCOCCOCCOCCOC(=O)/C=C/c1ccc(-c2nc3c(=O)n(CC4CCCCC4)c(=O)n(CC4CCCCC4)c3[nH]2)cc1` [Example 10, (E)-4-(1,3-Bis(cyclohexylmethyl)-1,2,3,6-tetrahydro-2,6-dioxo-9H-purin-8-yl)cinnamic Acid Nonaethylene Glycol Methyl Ether Ester], the “CARRAGEENAN PLEURISY … (MG/RAT) CELLS” value (male Lewis rats [1]) was 0.5 MG/RAT, the “CARRAGEENAN PLEURISY … (MG/RAT) EDEMA” value (male Lewis rats [1]) was 0.5 MG/RAT and the “ACETIC ACID COLITIS … (ROUTE) TISSUE WEIGHT” value (male Lewis rats [2]; po = oral administration) was 50 mg/kg. The “ACETIC ACID COLITIS … (ROUTE) MPO” value (male Lewis rats [2]; po = oral administration) was 50 mg/kg.

For `O=C(O)/C=C/c1ccc(-c2nc3c(=O)n(CC4CCCCC4)c(=O)n(CC4CCCCC4)c3[nH]2)cc1` [compound 1, (E)-4-[1,3 Bis(cyclohexylmethyl)-1,2,3,6-tetrahydro-2,6-dioxo-9H-purin-8-yl]cinnamic acid, reference compound], the “activity in Carrageenan Pleurisy Assay” value (male Lewis rats [1]) was “inactive”, the “activity in Acetic Acid Colitis Assay” value (male Lewis rats [2]) was “inactive” and the “% Survivors” value (Male CD-1 mice) was 25%. The Alive/Total (Male CD-1 mice) was 2/8.

With “(E)-4-(1,3-Bis(cyclohexylmethyl)-1,2,3,6-tetrahydro-2,6-dioxo-9H-purin-8-yl)cinnamic Acid Polyethylene Glycol (n=13) Ester [Example 18]” the “CARRAGEENAN PLEURISY … (MG/RAT) CELLS” value (male Lewis rats [1]) was 0.1 MG/RAT and the “CARRAGEENAN PLEURISY … (MG/RAT) EDEMA” value (male Lewis rats [1]) was 0.1 MG/RAT.

“(E)-4-(1,3-Bis(cyclohexylmethyl)-1,2,3,6-tetrahydro-2,6-dioxo-9H-purin-8-yl)cinnamic Acid Polyethylene Glycol (n=15) Methyl Ether Ester [Example 15]” was tested, and the “CARRAGEENAN PLEURISY … (MG/RAT) CELLS” value (male Lewis rats [1]) was 0.4 MG/RAT, the “CARRAGEENAN PLEURISY … (MG/RAT) EDEMA” value (male Lewis rats [1]) was 0.2 MG/RAT and the “ACETIC ACID COLITIS … (ROUTE) TISSUE WEIGHT” value (male Lewis rats [2]; po = oral administration) was “inactive”. For the same compound, the “ACETIC ACID COLITIS … (ROUTE) MPO” value (male Lewis rats [2]; po = oral administration) was 50 mg/kg.

For “(E)-4-(1,3-Bis(cyclohexylmethyl)-1,2,3,6-tetrahydro-2,6-dioxo-9H-purin-8-yl)cinnamic Acid Polyethylene Glycol (n=18.9) Ester [Example 17]”, the “CARRAGEENAN PLEURISY … (MG/RAT) CELLS” value (male Lewis rats [1]) was 0.1 MG/RAT and the “CARRAGEENAN PLEURISY … (MG/RAT) EDEMA” value (male Lewis rats [1]) was 0.1 MG/RAT.

“(E)-4-(1,3-Bis(cyclohexylmethyl)-1,2,3,6-tetrahydro-2,6-dioxo-9H-purin-8-yl)cinnamic Acid Polyethylene Glycol (n=32.2) Ester [Example 16]” was tested, and the “CARRAGEENAN PLEURISY … (MG/RAT) CELLS” value (male Lewis rats [1]) was 0.2 MG/RAT and the “CARRAGEENAN PLEURISY … (MG/RAT) EDEMA” value (male Lewis rats [1]) was 0.2 MG/RAT.

For “(E)-4-(1,3-Bis(cyclohexylmethyl)-1,2,3,6-tetrahydro-2,6-dioxo-9H-purin-8-yl)cinnamic Acid Polyethylene Glycol (n=41.5) Methyl Ether Ester [Example 14]”, the “CARRAGEENAN PLEURISY … (MG/RAT) CELLS” value (male Lewis rats [1]) was “Inactive” and the “CARRAGEENAN PLEURISY … (MG/RAT) EDEMA” value (male Lewis rats [1]) was 0.5 MG/RAT.
